Key:
[1] = target: T1, E1p/E2p-PSBD complex (pyruvate dehydrogenase E1 subunit with E2p peripheral subunit binding domain) (Geobacillus stearothermophilus, UniProt P21873+P21874); assay: X-ray crystal structure, […] A
T1 construct: gene pdhA; alpha2beta2 heterotetramer with one E2p PSBD; recombinant in E. coli TG1 recO (plasmids pKBstE1a, pKBstE1b); he-3-deazaThDP crystals grown with E2p di-domain (lipoyl domain-linker-PSBD); with Dihydrolipoyllysine-residue acetyltransferase component of pyruvate dehydrogenase complex

[2] = target: T2, E1p/E2p-PSBD complex (pyruvate dehydrogenase E1 subunit with E2p peripheral subunit binding domain) (Geobacillus stearothermophilus, UniProt P21873+P21874, P21873:I207A); assay: X-ray crystal structure, […] A; settings: 5 mM 3-deazaThDP; crystals at pH 5.0; ThDP site
T2 construct: gene pdhA; alpha2beta2 heterotetramer with one E2p PSBD; recombinant in E. coli TG1 recO (plasmids pKBstE1a, pKBstE1b); he-3-deazaThDP crystals grown with E2p di-domain (lipoyl domain-linker-PSBD); with Dihydrolipoyllysine-residue acetyltransferase component of pyruvate dehydrogenase complex

| SMILES | X-ray crystal structure, 2.3 A ([1]; Mg2+, pyruvate soaked in, ThDP site) | X-ray crystal structure, 2.35 A [2] | X-ray crystal structure, 2.3 A ([1]; 10 mM pyruvate soak 1 week into 3-deazaThDP crystals, density in two of four sites, orientation not definitive) |
| --- | --- | --- | --- |
| Cc1ncc(Cc2csc(CCOP(=O)(O)OP(=O)(O)O)c2C)c(N)n1 [3-deazaThDP] | we have solved the structure of the E1p/E2p-PSBD complex with bound 3-deazaThDP and pyruvate | crystal structure of the complex of 3-deazaThDP with the G. stearothermophilus E1p I206Aα mutant |  |
| CC(=O)C(=O)O [pyruvate] |  |  | density in the active-site pocket that is likely to be due to pyruvate binding |

— paper PMC2663715, “Snapshots of Catalysis in the E1 Subunit of the Pyruvate Dehydrogenase Multienzyme Complex” (Structure(London, England:1993), 2008)
